{"source": "patent US20040259732A1", "about": "“Treatment of plants and plant propagation materials with an antioxidant to improve plant health and/or yield” (Monsanto Technology, L.L.C., priority 2003, published 2004)", "key": {"[1]": {"tested_on": "seeds of black spruce and jack pine", "conditions": "seed soak at 0, 0.1, and 10 mg/l; cited from earlier work"}, "carrot seeds": {"tested_on": "carrot seeds", "conditions": "seed soak: gibberellic acid 1 and 100 microgram/l, Ambiol 0.1 mg/l, glycinebetaine 100 mg/l; cited from earlier work"}, "carrot seed": {"tested_on": "carrot seed", "conditions": "carrot seed treatment; cited from earlier work"}, "Hybrid \"A\" corn seeds": {"tested_on": "Hybrid \"A\" corn seeds", "experiment": "Cold condition germination test (Test 3), Hybrid A corn seeds", "format": "in vivo", "conditions": "10° C.", "procedure": "(§1) This test was designed to measure the ability of seeds to germinate under adverse condition associated with high moisture and low temperature. Test 3-This test was conducted as described above in Test 1, except that the Petri dishes were incubated at a constant temperature of 10° C. Germination rate was determined as described above in Test 1. The test length continued for 30 days as the seeds are very slow to germinate under these conditions."}, "Hybrid \"B\" corn seeds": {"tested_on": "Hybrid \"B\" corn seeds", "experiment": "Cold condition germination test (Test 3), Hybrid B corn seeds", "format": "in vivo", "conditions": "10° C.", "procedure": "as §1"}, "[2]": {"tested_on": "Hybrid \"A\" (cold tolerant) corn", "conditions": "10° C.; 25 g/100 kg seed", "procedure": "(§2) This test was designed to measure the emergence of plantlets from sprouted seeds under conditions that more closely resemble those found in field conditions.\n(§3) For each sample batch of seed to be tested, 10 seeds were placed on ½″ of soil medium in a test tray and covered with an additional 2″ of soil medium. Three replications were prepared for each sample batch. The soil is moistened regularly and placed in the desired temperature regime. For a cold emergence test, trays are incubated at 10° C. with 16 hours of light. The tray is monitored daily over a 30-day period and a seed is counted as emerged when the spike breaks through the surface of the soil. Percent emergence is calculated as the number of emerged plantlets divided by the total number of seeds that were planted, times 100.\n(§4) Corn hybrids “A” and “B”, as described above were treated with choline chloride at levels of 0, 10, 25 and 50 g/100 kg of seed. Each batch of seed was tested under 10° C. incubation conditions for emergence from a soil medium as described above."}, "[3]": {"tested_on": "Hybrid \"B\" (cold sensitive) corn", "conditions": "10° C.", "procedure": "as §2, §3, §4"}, "corn seed": {"tested_on": "corn seed", "experiment": "Field trials, emergence in cold conditions by seed treatment rate", "format": "in vivo", "conditions": "rates from 25 g/100 Kg to 250 g/100 Kg", "procedure": "(§5) Samples of seed having each type of treatment shown in Table 3 were planted in a controlled field trial in the upper Midwestern United States. Conservation tillage practices were adhered to and planting was accomplished during the first 10% of the crop that got planted in that area. During the trial, the plant density (number of plants per acre) and the corn yield (bu/acre) were measured."}, "corn seeds": {"tested_on": "corn seeds", "conditions": "optimum (warm) conditions; any of the treatment levels tested (10-250 g/100 kg seed)", "experimental": "Test 1—Ten seeds for each sample to be tested are placed in each of ten Petri dishes with 5 ml of distilled water and incubated at 30° C. day and 20° C. night with a 16 hour day length. Each day the Petri dishes were checked and scored for germination. Percent germination was determined as the average number of seeds which had germinated within the test period minus any abnormal seeds, divided by the total number of original seeds, times 100. A seed was considered germinated when the radical reached a length of 1 cm.\nTest 2—Test 2 is much closer to an industry standard for optimum condition testing. Test seeds are placed on a moist paper towel and then covered with a second moist paper towel. The towel is then rolled into a cylinder and placed upright in a beaker containing water. The beaker is placed in an incubation chamber at 25° C. for 7 days in continuous darkness. After 7 days the number of seeds germinated are counted and converted to a percentage of seeds in the test. This test is used to determine the maximum germination potential of the seed.\nAfter treatment, each seed sample was tested for germination in as described in Test 1, Test 2 and Test 3, as described above."}, "[4]": {"tested_on": "Corn plantlets (Hybrid LH176rr1.4(LH224×LH226))", "experiment": "Fresh weight accumulation after cold stress, corn plantlets", "format": "in vivo", "conditions": "seed treated with 50-100 g/100 kg; 6 days 18° C./12° C."}, "cotton seeds": {"tested_on": "cotton seeds", "conditions": "treated cotton seeds; cited from earlier work"}, "[5]": {"tested_on": "Soybean plantlets (Hybrid AG3303)", "experiment": "Fresh weight accumulation after cold shock, soybean plantlets", "format": "in vivo", "conditions": "seed treated with 10-20 g/100 kg; one week 22° C./13° C.; measured 10 days after return to greenhouse", "procedure": "Soybean plantlets (Hybrid AG3303, available from Asgrow Seed Co., St. Louis, Mo.) that were grown in a greenhouse maintained at day/night temperatures of 30° C. day and 25° C. night and with a 12 hour light period. The seed had been treated with different levels of glycinebetaine and were grown in optimum greenhouse conditions until they reached the first trifoliate stage of development. The plants were then moved from the greenhouse and subjected to 22° C./13° C. day/night temperatures for one week in a Conviron growth chamber. After one week the plants were returned to the greenhouse for “recovery” in optimal conditions. The fresh weight accumulation of the plantlets was then measured after 10 days following their return to the greenhouse."}, "[6]": {"tested_on": "Corn seeds (Hybrid LH176rr1.4(LH224×LH226))", "format": "in vivo", "conditions": "field trial", "procedure": "Corn seeds (Hybrid LH176rr1.4(LH224×LH226, available from Holden's Foundation Seeds, Inc., Williamsburg, Iowa) were treated with an antioxidant, alone or in combination with a pesticide (silthiofam, available from Monsanto Co., St. Louis, Mo., under the trade name […]®, 11.83% w/w silthiofam) according to the rates shown in Table 3.\nas §5"}}}
{"smiles": "Cc1nc2ccc(O)c(CN(C)C)c2[nH]1", "note": "[Ambiol, 2-methyl-4-[dimethylaminomethyl]-5-hydroxybenzimidazole]", "values": [{"measurement": "membrane leakage", "setting": "[1]", "result": "reduced membrane leakage"}, {"measurement": "emergence of seedlings", "setting": "carrot seeds", "result": "accelerated emergence of seedlings"}, {"measurement": "germination in carrots", "setting": "carrot seed", "result": "hastened germination"}]}
{"smiles": "C[N+](C)(C)CCO.[Cl-]", "note": "[choline chloride]", "values": [{"measurement": "50% germination earlier than untreated control", "setting": "Hybrid \"A\" corn seeds; 100 g/100 kg (best rate)", "result": "two days earlier"}, {"measurement": "effect on germination rate", "setting": "Hybrid \"A\" corn seeds; lower treatment rates, FIG. 1A / FIG. 2A", "result": "substantially the same effect"}, {"measurement": "50% germination earlier than untreated control", "setting": "Hybrid \"B\" corn seeds; 50 g/100 kg", "result": "three days earlier"}, {"measurement": "50% germination earlier than untreated control", "setting": "Hybrid \"B\" corn seeds; 100 g/100 kg", "result": "three days earlier"}, {"measurement": "50% emergence earlier than untreated control", "setting": "[2]", "result": "three days before the untreated control"}, {"measurement": "day on which 50% emergence was reached", "setting": "[2]", "result": 22, "unit": "days"}, {"measurement": "days after seeding at which 50% germination was reached", "setting": "[3]; 10 g/100 kg seed", "result": 29, "unit": "days"}, {"measurement": "increase in germination time over untreated control", "setting": "[3]; 10 g/100 kg seed, study end 31 days", "result": "minimum of two days"}, {"measurement": "first evidence of emergence", "setting": "[3]; 10 g/100 kg treated seed", "result": 21, "unit": "days"}, {"measurement": "emergence as a function of rate", "setting": "corn seed", "result": "emergence is found to increase with the increase of the rate"}, {"measurement": "effect on germination under normal growing conditions", "setting": "corn seeds", "result": "no negative effects on germination"}, {"measurement": "fresh weight accumulation after cold shock vs untreated seed", "setting": "[4]", "result": "tendency for greater fresh weight accumulation"}]}
{"smiles": "C=C1C[C@]23C[C@@]1(O)CC[C@H]2[C@@]12C=C[C@H](O)[C@@](C)(C(=O)O1)[C@H]2[C@@H]3C(=O)O", "note": "[gibberellic acid]", "values": [{"measurement": "emergence of seedlings", "setting": "carrot seeds", "result": "accelerated emergence of seedlings"}]}
{"smiles": "C[N+](C)(C)CC(=O)[O-]", "note": "[glycinebetaine]", "values": [{"measurement": "emergence of seedlings", "setting": "carrot seeds", "result": "accelerated emergence of seedlings"}, {"measurement": "50% germination earlier than untreated control", "setting": "Hybrid \"B\" corn seeds; 50 g/100 kg", "result": "three-day earlier germination"}, {"measurement": "50% germination earlier than untreated control", "setting": "Hybrid \"B\" corn seeds; 100 g/100 kg", "result": "three-day earlier germination"}, {"measurement": "germination in carrots", "setting": "carrot seed", "result": "hastened germination"}, {"measurement": "drought tolerance", "setting": "cotton seeds", "result": "improvement in drought tolerance"}, {"measurement": "fresh weight accumulation following the cold shock", "setting": "[5]", "result": "greater fresh weight accumulation"}]}
{"smiles": "C=CCNC(=O)c1c([Si](C)(C)C)sc(C)c1C", "note": "[silthiofam, 4,5-dimethyl-N-(2-propenyl)-2-(trimethylsilyl)-3-thiophenecarboxamide]", "values": [{"measurement": "corn yield improvement over untreated control", "setting": "[6]; rates of Table 3 (silthiofam 25, choline chloride 250, glycinebetaine 50, BHA/BHT 10 g/100 kg seed), FIGS. 7B and 7C", "result": "~20", "unit": "%"}, {"measurement": "corn plant density (number of plants per acre)", "setting": "[6]; rates of Table 3, FIG. 7A", "result": "significant improvement in corn plant density"}]}
